Results as given in patent EP0324328B1, “Use of the N-n-butyl derivative of desoxynojirimycin in the manufacture of a medicament inhibiting HIV-Virus” (priority 1987, dated 1989).
Where two headings read alike, the source gives them in different places.

Assays:
HIV [1] = conditions: cited from earlier work; for effect upon HIV infectivity: Gruters et al., Nature 330, 74-77 (1987)
HIV [2] = test: Inhibition of HIV-associated cytopathic effect (CPE) in T-45 cells; type: cell-based; conditions: HIV infected T-45 cells, various concentrations (Fig. 3); result in words
Method: FIG. 3 is a graphical representation in which the inhibition of HIV associated CPE (―% CPE) reduction) and test compound-associated cytotoxicity (---% cell death) is plotted against the media concentration in mg/ml of several test compounds (drugs). The cell viability data was determined for non-HIV infected cells. The test compounds were the N-methyl-, N-ethyl-, and N-butyl derivatives of deoxynojirimycin (DNJ), castanospermine (Cast), N-(5-carboxymethyl-1-pentyl)-1,5-imino-L-fucitol (LFT) and 1,4-dideoxy-1,4-imino-L-arabinitol (LAB).
After a suitable period of incubation, the cultures are scored for the presence of so-called syncytial cells (giant cells). Typical examples of such a test for the evaluation of inhibitors of HIV have been disclosed by Fung et al., Bio/Technology 5, 940-946 (1987); Tyms et al., Lancet, October 31, 1987, pp. 1025-1026; Gruters et al., Nature 330, 74-77 (1987); and Walker et al., Proc. Natl. Acad. Sci. USA 84, 8120-8124 (1987).
(§1) The efficacy of the test compounds used in this example was assessed as follows: 0.2 ml of culture medium containing 10^4 T-45 cells were transferred into each well of a 96-well flat-bottomed tissue-culture plastic plate and the cells were allowed to settle at 37°C (see Figure 1). After 4 hours the media were aspirated and replaced with media which contained the test compound. Following overnight incubation the media was aspirated and 10^4 TCID of virus (HIV-1 or HIV-2) was added to each well. Incubation was continued at 37°C in 5% CO2 for 1 hour. Thereafter, growth media containing the various compounds were added and incubation at 37°C was continued. On the fourth day the cell suspensions from each well were split and seeded into two new wells and 0.2 ml of fresh media with compounds was added. This was repeated on the seventh day. Cells were examined by microscopy during days 1 to 10 for the presence of syncytia, growth rate and the appearance of the cytopathic effect (CPE) (giant cells, pycnotic nuclei, loss of refractility). CPE (100%) was defined as no round, refractile, uniform cells remaining; only giant, ballooned pyknotic cells were present. The viability of HIV infected cultures was determined by a rough count/estimate of cells which underwent CPE in relation to round refractile uniform (normal) cells in a given culture. Cells in wells which were incubated with compounds which appeared to inhibit or reduce HIV replication and in which there was marked cell proliferation were either transferred to larger wells (of a 24-well plate) or divided in order to maintain an approximate constant cell density to promote continuous cell division.

HIV [3] = conditions: result in words; see Fleet et al., FEBS Lett., In Press, 1988; cited from earlier work
T-45 cells = type: cell-based, human; conditions: for Estimated Cell Growth Virus-uninfected Day 7: no-drug control 1.2x10^6; for cytotoxicity: non-infected cells, over the concentration range used (Fig. 3, Table 1), result in words
Method: FIG. 1 is a schematic outline of the test procedure used to assess the cytotoxic effect of test compounds on T-cells either infected or non-infected with HIV and in parallel the HIV inhibitory activity of the test compounds. TCID is the tissue culture infectious dose. Cells were cultured in RPMI-1640 medium with 10% fetal calf serum containing 100 units/ml penicillin G and 100 µg/ml streptomycin.
(§2) The assay was run in 96 well plastic microtiter plates in which 0.2 ml of culture medium containing 10^4 T-cells are seeded into each well. RPMI-1640 supplemented with 10% fetal calf serum was used as the culture medium. In each assay, 6 wells are used. Three (1-3) are infected with 10^4 TCID/well of HIV-1 or HIV-2 and to the other three (4-6) culture medium alone is added. Medium is changed at the same intervals for each test compound. The detailed assay procedure is illustrated in Figures 1 and 2.
as §1, with “culture.” for “culture. Cells in wells which were incubated with compounds which appeared to inhibit or reduce HIV replication and in which there was marked cell proliferation were either transferred to larger wells (of a 24-well plate) or divided in order to maintain an approximate constant cell density to promote continuous cell division.”
Quantitative data on the effect of the various compounds on the non-infected cells (cytotoxicity) was obtained by comparison of their growth rate to control cells not exposed to drugs (Table 1). […] In addition, the MOLT-4 cell line was also used.

HIV [4] = test: TCID titre of culture supernatants of T-45 cells infected with HIV, Fig. 4; type: cell-based; conditions: for reduction of TCID titre of culture supernatants: T-45 cells infected with HIV, after 10 days in culture, result in words
Method: FIG. 4 is a graphical representation in which the viral titer (determined as TCID) is plotted against the concentration in mg/ml of various of the test compounds (drugs) of FIG. 3 in panels (a) and (b).
(§3) Cell free suspensions of the HIV were prepared from infected cultures. The concentration of infectious particles was estimated on end-point titration assay using serial ten-fold dilutions. The approximate number of infectious particles in each preparation was determined by the highest dilution which contains infectious HIV as determined by synctial formation, cytopathicity [Leonard et al., Proc. Natl. Acad. Sci. USA 85, 3570-3574 (1988); Barre-Sinoussi et al., Science 220, 868-870 (1983)] and HIV antigen [Karpas et al., Lancet 1, 695-697 (1985)] synthesis after 10 days of culture with 10^4 T-cells. This represents the concentration of infectious particles, herein defined as the tissue culture infectious dose (TCID).
as §1
Quantitative data on the effect of the various compounds on the non-infected cells (cytotoxicity) was obtained by comparison of their growth rate to control cells not exposed to drugs (Table 1). Fig. 4 and Table 2 show the relation between the TCID titre of culture supernatants of T-45 cells infected with HIV after 10 days in culture and the concentration of drug. […] The inability of any of these drugs alone to totally reduce the TCID may be due to heterogeneity of virus production or spread. […] In addition, the MOLT-4 cell line was also used.

[5] = system: B16-F10 murine melanoma cells; test: Incorporation of radiolabeled galactose, mannose, glucose and thymidine into cells; type: cell-based; conditions: result in words
HIV-1 = test: Virus titer (TCID) of HIV-1 infected T-cell cultures grown with test compound; type: cell-based; conditions: control 10^6; for HIV-1 (TCID): Table 2, 0.10 mg/ml, 10^4 T-45 or MOLT-4 cells (identical results), 10^4 TCID inoculum, after day 10; for VIRUS TITER HIV-1: Table 3, Example 2, 0.1 mg/ml, T-45 and MOLT-4 cells, 10^4 TCID on 10^4 cells
Method: as §3, §2, §1
(§4) That is, HIV-1 was first passaged in T-45 cells; likewise, HIV-1 was first passaged in MOLT-4 cells. The same passaging was done with HIV-2. The test compounds were used at a concentration of 0.1 mg/ml. 10^4 TCID of HIV-1 and separately of HIV-2 were used to infect 10^4 cells. Upon completion of the test, the virus titers were as follows: TABLE 3

HIV-2 = test: Virus titer (TCID) of HIV-2 infected T-cell cultures grown with test compound; type: cell-based; conditions: control 10^6; for HIV-2 (TCID): Table 2, 0.10 mg/ml, 10^4 T-45 or MOLT-4 cells (identical results), 10^4 TCID inoculum, after day 10; for VIRUS TITER HIV-2: Table 3, Example 2, 0.1 mg/ml, T-45 and MOLT-4 cells, 10^4 TCID on 10^4 cells
Method: as §3, §2, §1, §4

SMILES: OC[C@H]1NC[C@@H](O)[C@@H](O)[C@@H]1O [DMJ, deoxymannojirimycin]
- effect upon HIV infectivity (HIV [1]): absence of effect

SMILES: O[C@H]1[C@H](O)[C@@H](O)CN2CC[C@H](O)[C@H]12 [Cast, castanospermine]
- effect on CPE formation (HIV [2]): bell shaped dose-dependence
- HIV inhibitory activity / effect on CPE (HIV [3]): inhibition of the cytopathic effect (CPE) by the α-glucosidase I inhibitor castanospermine is confirmed
- Estimated Cell Growth Virus-uninfected Day 7 (T-45 cells; Dosage 0.02 mg/ml): 1.2x10^6
- Estimated Cell Growth Virus-uninfected Day 7 (T-45 cells; Dosage 0.09 mg/ml): 1.0x10^6
- Estimated Cell Growth Virus-uninfected Day 7 (T-45 cells; Dosage 0.18 mg/ml): 8.0x10^5
- Estimated Cell Growth Virus-uninfected Day 7 (T-45 cells; Dosage 0.35 mg/ml): 8.0x10^5
- Estimated Cell Growth Virus-uninfected Day 7 (T-45 cells; Dosage 0.70 mg/ml): Toxic
- cytotoxicity (T-45 cells): cytotoxic
- reduction in virion infectivity (HIV [1]; background literature, b4): only a modest reduction in virion infectivity

SMILES: OC[C@H]1NC[C@H](O)[C@@H](O)[C@@H]1O [DNJ, 1,5-dideoxy-1,5-imino-D-glucitol]
- reduction of TCID titre of culture supernatants (HIV [4]): reduced the TCID only partially
- galactose incorporation into the cells ([5]; radiolabeled galactose): substantially inhibited galactose incorporation into the cells at 1.0 mM or less
- glucose utilization/inhibition ([5]; radiolabeled glucose): inhibited in a normal dose-response manner
- mannose utilization ([5]; radiolabeled mannose): inhibited mannose utilization
- ^3H-Thymidine uptake into the cells [5]: inhibited incorporation at 2.0 mM
- Estimated Cell Growth Virus-uninfected Day 7 (T-45 cells; Dosage 0.25 mg/ml): 1.4x10^6
- Estimated Cell Growth Virus-uninfected Day 7 (T-45 cells; Dosage 0.50 mg/ml): 1.4x10^6
- HIV-1 (TCID) (HIV-1): 10^5 TCID
- VIRUS TITER HIV-1 (HIV-1): 10^5
- HIV-2 (TCID) (HIV-2): 10^5 TCID
- VIRUS TITER HIV-2 (HIV-2): 10^5
- effect upon HIV infectivity (HIV [1]): positive effect

SMILES: CCN1C[C@H](O)[C@@H](O)[C@H](O)[C@H]1CO [EtDNJ, N-ethyl-deoxynojirimycin]
- reduction of TCID titre of culture supernatants (HIV [4]): reduced the TCID only partially
- reduction of the virus titer / yield of infectious HIV (HIV [4]; at non-cytotoxic concentrations): two to four log-order of reduction
- effect on CPE formation (HIV [2]): bell shaped dose-dependence
- Estimated Cell Growth Virus-uninfected Day 7 (T-45 cells; Dosage 0.01 mg/ml): 1.2x10^6
- Estimated Cell Growth Virus-uninfected Day 7 (T-45 cells; Dosage 0.05 mg/ml): 1.2x10^6
- Estimated Cell Growth Virus-uninfected Day 7 (T-45 cells; Dosage 0.10 mg/ml): 1.3x10^6
- cytotoxicity (T-45 cells): cytotoxic
- HIV-1 (TCID) (HIV-1): 10^3 TCID
- VIRUS TITER HIV-1 (HIV-1): 10^3
- HIV-2 (TCID) (HIV-2): 10^3 TCID
- VIRUS TITER HIV-2 (HIV-2): 10^3
